The results in this text go back to ChEMBL document CHEMBL1201862, “PubChem BioAssay data set” (2004).

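All cell lines were grown in 96-well plates and treated with compound for 48 hours. GI50 marks 50% less growth.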 Activity calls are given as the source filed them. Rule as the data show it: active = GI50 up to about 1.1 µM and inactive = higher.

Among the test systems are UO-31; SNB-19; A498; SF-295; SN12C; NCI-H226; SNB-75; SK-MEL-5; SK-OV-3; SF-268; DLD-1; CCRF-CEM; UACC-257; NCI-H23; COLO 205; Malme-3M; HCC 2998; OVCAR-5.
Holding throughout (assay): growth of human tumour cells (NCI), 48 h

Turning to `C1OC1CN1CCN(CC2CO2)CC1` (centres undefined), the GI50 with UO-31 was 97.5 µM (inactive); with SNB-19 it was > 100 µM (inactive); in the assay with A498, > 100 µM (inactive); in the assay on SF-295, 42 µM (inactive); in the assay on SN12C, 32.1 µM (inactive); in the assay on NCI-H226, > 100 µM (inactive). Besides, the GI50 in the assay with SNB-75 is 38.2 µM (inactive); in the assay with SK-MEL-5, > 100 µM (inactive); in the assay on SK-OV-3, > 96.8 µM (inactive); in the assay on SF-268, 22.8 µM (inactive); with DLD-1 it was > 100 µM (inactive); with CCRF-CEM, 2.49 µM (inactive). Also, the GI50 in the assay with UACC-257 is > 100 µM (inactive); in the assay with NCI-H23 it was 22.1 µM (inactive); in the assay with COLO 205, > 100 µM (inactive); in the assay with Malme-3M, > 100 µM (inactive); in the assay with HCC 2998 it was > 100 µM (inactive); with OVCAR-5, > 100 µM (inactive).

Consider `Fc1cccc2c1cc1ccc3cccc4ccc2c1c34`, for which the GI50 in the assay with UO-31, in the assay on SNB-19, with A498, in the assay with SF-295, in the assay on SN12C and with NCI-H226 was > 100 µM (inactive) each time. Also, the GI50 in the assay with SNB-75, in the assay with SK-MEL-5, with SK-OV-3, in the assay on SF-268, with DLD-1 and in the assay on CCRF-CEM was > 100 µM (inactive) each time. The GI50 in the assay with UACC-257 is 95.7 µM (inactive); in the assay on NCI-H23 it was > 100 µM (inactive); in the assay on COLO 205, > 100 µM (inactive); with Malme-3M it was > 100 µM (inactive); in the assay on HCC 2998, > 100 µM (inactive); in the assay with OVCAR-5 it was > 100 µM (inactive).

For the compound `C#Cc1ccccc1N1C(=O)C=CC1=O`, the GI50 with UO-31, in the assay with SNB-19, in the assay with A498, with SF-295, in the assay with SN12C and in the assay with NCI-H226 was > 100 µM (inactive) each time. The GI50 in the assay on SNB-75, in the assay with SK-MEL-5, in the assay on SK-OV-3, in the assay on SF-268, with DLD-1 and in the assay on CCRF-CEM was > 100 µM (inactive) each time. Also, the GI50 with UACC-257, in the assay with NCI-H23, in the assay on COLO 205, in the assay on Malme-3M and in the assay with OVCAR-5 was > 100 µM (inactive) each time.

For the compound `CC(C)=CC(=O)CC(=O)C(=O)NCCNC(=O)C(=O)CC(=O)C=C(C)C`, the GI50 with UO-31, in the assay with SNB-19, with A498, in the assay on SF-295, in the assay on SN12C and with NCI-H226 was > 50 µM (inactive) each time. Moreover, the GI50 in the assay with SNB-75, in the assay with SK-OV-3, in the assay on SF-268, with DLD-1, in the assay on UACC-257 and with NCI-H23 was > 50 µM (inactive) each time. Also, the GI50 with COLO 205, in the assay on Malme-3M, in the assay with HCC 2998 and with OVCAR-5 was > 50 µM (inactive) in each case.

Regarding `CCOC(=O)C(OCC1CC=CCC1)Sc1ccccc1` (centres undefined), the GI50 in the assay with UO-31, in the assay on SNB-19, in the assay with A498, with SF-295, in the assay with SN12C and in the assay on SNB-75 was > 100 µM (inactive) each time. The GI50 in the assay on SK-MEL-5, in the assay on SK-OV-3, in the assay on SF-268, in the assay on DLD-1, with CCRF-CEM and in the assay on UACC-257 was > 100 µM (inactive) each time. Further, the GI50 in the assay with NCI-H23, with COLO 205, in the assay with Malme-3M, in the assay with HCC 2998 and with OVCAR-5 was > 100 µM (inactive) throughout.

Turning to `O=C1C=C2CCCC2C(C(=O)O)(C(=O)O)C1` (centres undefined), the GI50 in the assay with UO-31, in the assay on SNB-19, in the assay with A498, in the assay on SF-295, with SN12C and in the assay with SNB-75 was > 100 µM (inactive) each time. Also, the GI50 in the assay with SK-MEL-5, with SK-OV-3, in the assay on SF-268, with DLD-1, with CCRF-CEM and in the assay with UACC-257 was > 100 µM (inactive) each time. The GI50 in the assay with NCI-H23, in the assay on COLO 205, in the assay with Malme-3M and in the assay on HCC 2998 was > 100 µM (inactive) each time.

For the compound `CC(C)NC(C)C(C)c1ccccc1` (centres undefined), the GI50 in the assay with UO-31, in the assay with SNB-19, in the assay on A498, with SF-295, with SN12C and in the assay with NCI-H226 was > 100 µM (inactive) in each case. The GI50 with SNB-75, in the assay on SK-MEL-5, in the assay with SK-OV-3, in the assay with SF-268, with DLD-1 and in the assay on CCRF-CEM was > 100 µM (inactive) throughout. Also, the GI50 with UACC-257, in the assay on NCI-H23, in the assay with COLO 205, in the assay on Malme-3M and in the assay on HCC 2998 was > 100 µM (inactive) each time.

Take `CC(C)(C)C1=CC(=C2C(=O)C(=O)c3ccccc3C2=O)C=C(C(C)(C)C)C1=O`: the GI50 is 43.7 µM (inactive) with UO-31; > 100 µM (inactive) in the assay with SNB-19; < 0.01 µM (active) with A498; > 100 µM (inactive) in the assay on SF-295; 72.9 µM (inactive) with SN12C; > 100 µM (inactive) in the assay on SNB-75. Further, the GI50 in the assay with SK-MEL-5 is 48.5 µM (inactive); with SK-OV-3, > 100 µM (inactive); with SF-268, > 100 µM (inactive); in the assay with DLD-1, 36.6 µM (inactive); in the assay on CCRF-CEM, 36.5 µM (inactive); with UACC-257, 29.4 µM (inactive). The GI50 in the assay with NCI-H23 is 32.7 µM (inactive); with COLO 205, 42.1 µM (inactive); in the assay on Malme-3M, 26.5 µM (inactive); in the assay with HCC 2998, > 100 µM (inactive); with OVCAR-5, > 100 µM (inactive).

As to `COc1ccc(C(=O)O/N=C2\CCCC\C2=C/c2ccccc2)cc1`, the GI50 was > 100 µM (inactive) with UO-31; 58.3 µM (inactive) with SNB-19; 74.8 µM (inactive) in the assay on A498; > 100 µM (inactive) in the assay on SN12C; 28.4 µM (inactive) with SNB-75; > 100 µM (inactive) in the assay with SK-MEL-5. For the same compound, the GI50 in the assay with SK-OV-3 was > 100 µM (inactive); in the assay on SF-268, 67.1 µM (inactive); in the assay on DLD-1 it was > 100 µM (inactive); in the assay with CCRF-CEM, > 100 µM (inactive); in the assay with NCI-H23, 15.4 µM (inactive); with COLO 205, > 100 µM (inactive). Besides, the GI50 with HCC 2998 was > 100 µM (inactive).

Consider `CC(C)C(=O)N[C@@H](C)C(=O)N(Cc1ccc2ccccc2c1)N=O`, for which the GI50 is 30 µM (inactive) with UO-31; > 100 µM (inactive) in the assay with SNB-19; 58.2 µM (inactive) in the assay on A498; 48.6 µM (inactive) in the assay on SF-295; > 100 µM (inactive) in the assay with SN12C; > 100 µM (inactive) in the assay on SNB-75. The GI50 with SK-MEL-5 was > 100 µM (inactive); in the assay with SK-OV-3 it was > 100 µM (inactive); in the assay on SF-268 it was > 100 µM (inactive); with DLD-1, > 100 µM (inactive); in the assay on CCRF-CEM it was 61.4 µM (inactive); in the assay on UACC-257 it was > 100 µM (inactive). For the same compound, the GI50 in the assay on COLO 205 is > 100 µM (inactive); with Malme-3M, > 100 µM (inactive); in the assay with HCC 2998, > 100 µM (inactive); in the assay on OVCAR-5, 48.8 µM (inactive).

Turning to `Cc1ccc(C2=NO[C@@H]3C(=O)N(c4ccc(Cc5ccc(N6C(=O)[C@H]7C(c8ccc(C)cc8)=NO[C@H]7C6=O)cc5)cc4)C(=O)[C@H]23)cc1`, the GI50 in the assay with UO-31 is > 100 µM (inactive); in the assay with A498 it was > 100 µM (inactive); with SF-295, > 100 µM (inactive); in the assay on SN12C, > 100 µM (inactive); in the assay with NCI-H226 it was > 100 µM (inactive); in the assay with SNB-75, 79.4 µM (inactive). In addition, the GI50 in the assay with SK-MEL-5 is > 100 µM (inactive); in the assay on SK-OV-3, > 100 µM (inactive); in the assay on SF-268, > 100 µM (inactive); with DLD-1, > 100 µM (inactive); in the assay on CCRF-CEM, > 100 µM (inactive); in the assay on UACC-257, 38.7 µM (inactive). Further, the GI50 in the assay on NCI-H23, in the assay on COLO 205, in the assay with Malme-3M, with HCC 2998 and with OVCAR-5 was > 100 µM (inactive) each time.

With `CCCC(=O)C(CC)/C(CCC(=O)N(Cc1ccccc1)Cc1ccccc1)=N/NC(=O)C[N+](C)(C)C` (centres undefined), the GI50 in the assay with UO-31, in the assay on SNB-19, in the assay with A498, with SF-295, in the assay on SN12C and with NCI-H226 was > 100 µM (inactive) in each case. Besides, the GI50 in the assay on SNB-75, with SK-MEL-5, in the assay on SK-OV-3, in the assay on SF-268, in the assay on DLD-1 and in the assay with CCRF-CEM was > 100 µM (inactive) in each case. Besides, the GI50 in the assay with UACC-257, in the assay on NCI-H23, in the assay on COLO 205, in the assay on Malme-3M and in the assay on OVCAR-5 was > 100 µM (inactive) each time.
